Measured values: patent US6531148B1, “Therapeutic agents” (Takara Shuzo Co., Ltd., priority 1998, dated 2003)
Values after ≈ are worked out from the molar mass of the structure shown.

Key:
Assay in all cases: Antimicrobial activity test
Type in all cases: cell-based
[1] = tested on: Streptococcus mutans GS5; details: Bacterium 5, 24 hours
Protocol: (§1) The antimicrobial activities of DGE against Escherichia coli W3110 (Bacterium 1), Salmonella typhimurium LT2 (Bacterium 2), Bacillus subtilis IFO3021 (Bacterium 3), Pseudomonas aeruginosa IFO3080 (Bacterium 4) and Streptococcus mutans GS5 (Bacterium 5) were examined as follows.
(§2) The Bacteria 1 to 4 were cultured overnight in L-broth. The cultures were diluted to a concentration of about 2×10^5 cells/180 μl with Sensitive Bouillon medium (Nissui) base on the turbidity. The Bacterium 5 was cultured overnight in Brain Heart Infusion medium. The culture was diluted to a concentration of about 2×10^5 cells/180 μl with Brain Heart Infusion medium based on the turbidity. 180 μl of each bacterial dilution was placed in each well of a 96-well microtiter plate. On the other hand, the respective bacterial dilutions were further diluted and spread onto plates of L-broth or Brain Heart Infusion medium. The plates were incubated at 37° C. overnight. The resulting colonies were counted to determine the stating viable cell numbers.
(§3) A 14.4 mg/ml DGE solution was diluted every 2-folds to prepare serial dilutions. 20 μl each of the dilutions was placed in the well in which the bacterial dilution had been placed. The cells were cultured at 37° C. for 24 hours without shaking. After cultivation, the turbidity of each culture was measured.
(§4) Furthermore, the culture from the well for which the growth of bacterial cells was not observed was spread onto plates. After the plates were incubated at 37° C. overnight, the colony number was counted to determine the viable cell number. […] The minimal growth-inhibitory concentrations and the minimal bacteriocidal concentrations of DGE for the Bacteria 1 to 5 were determined as shown in Table 2.

[2] = tested on: Pseudomonas aeruginosa IFO3080; details: Bacterium 4, 24 hours
Protocol: as §1, §2, §3, §4

[3] = tested on: Escherichia coli W3110; details: Bacterium 1, 24 hours
Protocol: as §1, §2, §3, §4

[4] = tested on: Bacillus subtilis IFO3021; details: Bacterium 3, 24 hours
Protocol: as §1, §2, §3, §4

[5] = tested on: Salmonella typhimurium LT2; details: Bacterium 2, 24 hours
Protocol: as §1, §2, §3, §4

O=C1C=CC(CO)OC1O [DGE, L-glycero-1,5-epoxy-1αβ,6-dihydroxy-cis-hex-3-en-2-one]
Minimal bacteriocidal concentration [1]: 180 µg/mL
MIC ([1]; Streptococcus mutans, GS5, read-out: Minimal growth-inhibitory concentration): 90 µg/mL (≈ 624 µM)
Minimal bacteriocidal concentration [2]: 720 µg/mL
MIC ([2]; Pseudomonas aeruginosa, IFO3080, read-out: Minimal growth-inhibitory concentration): 360 µg/mL (≈ 2500 µM)
Minimal bacteriocidal concentration [3]: 720 µg/mL
MIC ([3]; Escherichia coli, W3110, read-out: Minimal growth-inhibitory concentration): 360 µg/mL (≈ 2500 µM)
MIC ([4]; Bacillus subtilis, IFO3021, read-out: Minimal growth-inhibitory concentration): 360 µg/mL (≈ 2500 µM)
Minimal bacteriocidal concentration [4]: 720 µg/mL
Minimal bacteriocidal concentration [5]: 720 µg/mL
MIC ([5]; Salmonella enterica, TYPHIMURIUM, read-out: Minimal growth-inhibitory concentration): 360 µg/mL (≈ 2500 µM)
